From patent publication US20240076667A1, “APPLICATION OF ANTISENSE OLIGONUCLEOTIDE TARGETING PBX1 PROMOTER REGION G-QUADRUPLEX IN PREPARATION OF MEDICINE FOR TREATING MELANOMA” (JILIN UNIVERSITY, priority 2022, published 2024)
“Also recorded” adds a separate entry of the source.

Experiments:
[1] = test system: patient-derived melanoma xenograft (PDX); assay: PDX model of melanoma in NCG mice; format: in vivo; details: PDX; intravenous injection 20 mg/kg every two days for 21 days; vs PBX1 ASO scramble
Procedure: PDX model of melanoma: fresh tumor tissues are collected immediately after surgery, placed in RPMI 1640 medium containing penicillin/streptomycin (100 U/ml; 100 μg/ml), fungal zone (1 μg/ml) and Genta Mycin (50 μg/ml) (all from Gibco, USA) (4,5). According to the institutional review and the ethical guidelines for this study approved by the Ethics Committee of the Second Hospital of Jilin University, fresh tumor samples from patients suffering from melanoma are collected for transplantation with informed consent. The mice were kept and all procedures are performed under the approval and supervision of the Institutional Animal Care and Use Committee (IACUC) of the School of Public Health of Jilin University (Changchun, China). Necrotic tissues are excised before transplantation, and tumor tissues are minced to a size of 2×2×2 mm^3, and implanted subcutaneously in the flank of 6-week-old NCG male mice to generate first-generation (F1) PDX mice. Successfully transplanted tumor models are passaged and stored using standard methods. H&E staining is used to evaluate the morphology of patient tumor specimens and xenografts of established PDX models. Treatment with ASO Scr or ASO (intravenous injection, 20 mg/kg) is initiated when the tumor volume of the mice reached 220-280 mm^3. Tumor growth and body weight measurements are performed. Tumors are dissected at the end of treatment for further processing for RNA, protein and histological analysis.
Control:mG*mT*mC*mC*mA*mC*mA*mA*mA*mC*mA*mC*mA*mA*mC*mT*mC* mC*mT*mG*). […] This example also establishes short-term cultures of patient-derived melanoma xenograft (PDX)-derived tumor cells (PDCs) (FIG. 5D). […] To further expand the analysis, this embodiment establishes the PDX model of melanoma, and […] is administered intravenously (intravenous injection) every two days for 21 days.

A375 cells [2] = assay: In vitro cell invasion experiment (Transwell), A375; format: cell-based, human; details: Transwell with Matrigel, 24 hours
Procedure: (§1) In vitro cell invasion experiment: in the Transwell invasion experiment, Matrigel is used as an invasive supraluminal membrane barrier (Corning, USA). The lower transwell chamber is filled with 2.5% serum containing DMEM medium. The cells are suspended at an upper chamber. After incubation for 24 hours, the filter is removed, and cells on the membrane are fixed by using methanol. Cells stained with 0.5% crystal violet infiltrate the surrounding matrix. The dye is washed with water and the cells are examined under the microscope (Leica, Germany). Six micrographs are taken for each person.

A375 cells [3] = assay: Cell proliferation assay (CCK-8), A375; format: cell-based, human; details: dose-dependent manner
Procedure: Cell proliferation assay: cell viability is determined by the cell counting kit-8 (CCK-8) according to the manufacturer's instructions (Abcam, UK). Cells (2000 cells per well) are incubated in the 96-well plate in triplicate and then added to each well at various time points at the final concentration of 10%, and incubation is continued at 37° C. After 60 minutes, the absorbance of the sample is measured at the wavelength of 450 nm. Data is analyzed using GraphPad Prism software.

B16-F10 cells [4] = assay: Cell scratch assay (migration), B16-F10; format: cell-based, mouse; details: PDS (2 μM), TMPyP4 (5 μM), 24 h
Procedure: Cell scratch assay: the cells are seeded in 12-well plate and grown for 24 hours to 80% confluency. The bare region is created by the tip across the diameter of the dish. After being treated with PDS (2 μM) and TMPyP4 (5 μM) for 24 h, the cells are washed with PBS and photographed under the microscope (Leica, Germany) to evaluate cell migration. Six micrographs are taken for each person.

B16-F10 cells [5] = assay: In vitro cell invasion experiment (Transwell), B16-F10; format: cell-based, mouse; details: Transwell with Matrigel, 24 hours
Procedure: as §1

PBX1 [6] = assay: PBX1 mRNA and protein levels by qRT-PCR and western blot in B16-F10 cells; format: cell-based, mouse; details: for mRNA level of PBX1: qRT-PCR; for protein level of PBX1: western blot, normalized to GAPDH
Procedure: (§2) RNA extraction and quantitative RT-PCR detection: total RNA is extracted from cultured cells by using TRIzol (Invitrogen, USA), then is converted into cDNA by SuperScript III First-Strand Synthesis SuperMix (Invitrogen, USA). qRT-PCR detection is performed by using SYBR Green®Mix (Invitrogen, USA) in ABI 7500 (Invitrogen, USA). A relative expression quantity of RNA is calculated by using a comparative CT method.
(§3) Immunoblotting: for protein analysis of a whole-cell lysate, cells are lysed with RIPA (CWBIO, Beijing, China) buffer solution. For tumors, liquid nitrogen is first used to pulverize tissues. Then, the lysate is generated on ice with the RIPA (CWBIO, Beijing, China) buffer solution for 20 minutes, and then centrifuged at 4° C., 13000 rpm for 15 minutes. Protein-containing supernatant is transferred to the fresh microcentrifuge tube, and stored at −20° C. (short-term storage) for subsequent use. The protein is quantified by using the BIO-RAD DC protein assay. The total proteins are electrophoresed on SDS-polyacrylamide gels. Then, the proteins are transferred to polyvinylidene difluoride (PVDF) membrane. After incubation with the primary antibody overnight on the shaker at 4° C., the membrane is washed 6 times (5 minutes each time) with TBS-T (Invitrogen, USA). Then, blots are incubated with horseradish peroxidase (IRP)-conjugated secondary antibodies for 60 minutes at RT on the plate shaker. The membrane is cleaned by TBS-T (6×5 minutes). Detection on immunoreactive bands is performed by using SuperSignalmWest Pico chemiluminescence substrate kit (Thermo Fisher Scientific, USA) and Western blotting detection system (BioRad, USA). GAPDH is used as the loading control for western blotting. The intensity levels of the bands are normalized to GAPDH.

B16-F10 cells [7] = assay: In vivo tumor metastasis assay, B16-F10 tail vein injection; set-up: species or system mice; details: B16-F10 tail vein; PDS 5 mg/kg twice a day, 16 consecutive days
Procedure: In vivo tumor metastasis assay: 2×10^5 B16-F10 cells are injected into the tail vein of tail vein tumor. According to solutions formulated by the NCI Animal Care and Use Committee, metastatic endpoints are determined for each experiment by maximal primary tumor burden and/or appearance of moribund mice in all treatment groups. PDS (5 mg/kg) is administered twice a day, for 16 consecutive days.
Bioluminescent tumor cell tracking: in vivo whole-animal imaging, anesthetized mice are injected intraperitoneally with 3 mg of d-luciferin (MCE, USA). Luminescence data is collected on an IVIS system (Perkin Elmer, USA). For live tissue imaging, tissues are perfused with PBS, harvested, and incubated in PBS with 1 μg/ml-1d-luciferin. Data analysis is performed using an IVIS Image software package.

PBX1 [8] = assay: PBX1 mRNA and protein levels by qRT-PCR and western blot in A375 cells; format: cell-based, human; details: for mRNA level of PBX1: qRT-PCR; for protein level of PBX1: western blot, normalized to GAPDH
Procedure: as §2, §3

SMILES | tumor growth [1] | invasion (A375 cells [2]) | cell viability (activity) measured by CCK8 (A375 cells [3]) | migration (B16-F10 cells [4]) | invasion (B16-F10 cells [5]) | mRNA level of PBX1 (PBX1 [6]) | protein level of PBX1 (PBX1 [6]) | metastasis of xenograft tumors (lung) (B16-F10 cells [7]) | mRNA level of PBX1 (PBX1 [8]) | protein level of PBX1 (PBX1 [8])
NCCOc1cc(C(=O)Nc2cc(OCCN)c3ccccc3n2)nc(C(=O)Nc2cc(OCCN)c3ccccc3n2)c1 [PDS, Pyridostatin] | inhibits | inhibit | reduce; also recorded: remarkably reduces | inhibit | inhibit | inhibit; also recorded: remarkably reduces | inhibit; also recorded: remarkably reduces | remarkably inhibits | inhibit; also recorded: remarkably reduces | inhibit; also recorded: remarkably reduces
C[n+]1ccc(-c2c3nc(c(-c4cc[n+](C)cc4)c4ccc([nH]4)c(-c4cc[n+](C)cc4)c4ccc([nH]4)c(-c4cc[n+](C)cc4)c4nc2C=C4)C=C3)cc1 [TMPyP4] |  | inhibit | reduce; also recorded: remarkably reduces | inhibit | inhibit | inhibit; also recorded: remarkably reduces | inhibit; also recorded: remarkably reduces |  | inhibit; also recorded: remarkably reduces | inhibit; also recorded: remarkably reduces
